Results taken from publication PMC9447987, “Long-term memory CD8^+ T cells specific for SARS-CoV-2 in individuals who received the BNT162b2 mRNA vaccine” (Nature Communications, 2022).
Like-named read-outs stand apart in the source and are kept apart here.

Tests used:
[1] = system: HLA-A*24:02-restricted CD8+ T cells; format: cell-based, human
HLA-A*24:02 = HLA-A*24:02 (Homo sapiens, UniProt P04439, D101N/D140Y/D185E/E176V/E190D/F33S/G103R/G107R/I119L/I121M/I306V/K335N/L105A/L180Q/L300P/N151K/N90K/Q86E/Q94H/R106L/R138H/R89G/T104I/T345S/V100E/W191G/Y123F); assay: HLA stabilization assay using RMA-S-A2402 cells; format: binding; details: for MFI, HLA-A2402 (APC), representative staining: RMA-S-A2402 cells
[2] = convalescent donor C2, 45.290 weeks since PCR-confirmed diagnosis, […], peptide-pulsed C1R-A2402
[3] = convalescent donor C3, 2.430 weeks since PCR-confirmed diagnosis, […], peptide-pulsed C1R-A2402
[4] = convalescent donor C4, 35.000 weeks since PCR-confirmed diagnosis, […], peptide-pulsed C1R-A2402
[5] = convalescent donor C5, 41.430 weeks since PCR-confirmed diagnosis, […], peptide-pulsed C1R-A2402
[6] = convalescent donor C6, 20.000 weeks since PCR-confirmed diagnosis, […], peptide-pulsed C1R-A2402
[7] = convalescent donor C7, 21.710 weeks since PCR-confirmed diagnosis, […], peptide-pulsed C1R-A2402
[8] = convalescent donor C8, 47.860 weeks since PCR-confirmed diagnosis, […], peptide-pulsed C1R-A2402
[9] = convalescent donor C9, 21.860 weeks since PCR-confirmed diagnosis, […], peptide-pulsed C1R-A2402
[10] = convalescent donor C10, 24.570 weeks since PCR-confirmed diagnosis, […], peptide-pulsed C1R-A2402
[11] = convalescent donor C11, 24.290 weeks since PCR-confirmed diagnosis, […], peptide-pulsed C1R-A2402
[12] = vaccinated donor V1, 19.000 weeks since 2nd dose, […], C1R-A2402 pre-pulsed with 1 μM peptide
[13] = vaccinated donor V2, 9.570 weeks since 2nd dose, […], C1R-A2402 pre-pulsed with 1 μM peptide
[14] = vaccinated donor V3, 8.860 weeks since 2nd dose, […], C1R-A2402 pre-pulsed with 1 μM peptide
[15] = vaccinated donor V4, 10.430 weeks since 2nd dose, […], C1R-A2402 pre-pulsed with 1 μM peptide
[16] = vaccinated donor V5, 10.570 weeks since 2nd dose, […], C1R-A2402 pre-pulsed with 1 μM peptide
[17] = vaccinated donor V6, 9.570 weeks since 2nd dose, […], C1R-A2402 pre-pulsed with 1 μM peptide
[18] = vaccinated donor V7, 10.140 weeks since 2nd dose, […], C1R-A2402 pre-pulsed with 1 μM peptide
[19] = vaccinated donor V8, 9.860 weeks since 2nd dose, […], C1R-A2402 pre-pulsed with 1 μM peptide
[20] = vaccinated donor V9, 20.570 weeks since 2nd dose, […], C1R-A2402 pre-pulsed with 1 μM peptide
[21] = vaccinated donor V10, 2.000 weeks since 2nd dose, […], C1R-A2402 pre-pulsed with 1 μM peptide
[22] = vaccinated donor V11, 1.430 weeks since 2nd dose, […], C1R-A2402 pre-pulsed with 1 μM peptide
[23] = vaccinated donor V12, 1.000 weeks since 2nd dose, […], C1R-A2402 pre-pulsed with 1 μM peptide
[24] = vaccinated donor V13, 9.000 weeks since 2nd dose, […], C1R-A2402 pre-pulsed with 1 μM peptide
[25] = vaccinated donor V14, 2.000 weeks since 2nd dose, […], C1R-A2402 pre-pulsed with 1 μM peptide
[26] = vaccinated donor V15, 6.860 weeks since 2nd dose, […], C1R-A2402 pre-pulsed with 1 μM peptide
[27] = vaccinated donor V16, 8.860 weeks since 2nd dose, […], C1R-A2402 pre-pulsed with 1 μM peptide
[28] = vaccinated donor V17, 4.140 weeks since 2nd dose, […], C1R-A2402 pre-pulsed with 1 μM peptide
[29] = Suppl. Fig. 3b (for Fig. 4a, 4b), peptide(-) 14.8, 26 °C (Maximum) 32.7

Sequence	IFNg-producing cells among CD8 T cells (%) [1, 2] [%]	IFNg-producing cells among CD8 T cells (%) [1, 3] [%]	IFNg-producing cells among CD8 T cells (%) [1, 4] [%]	IFNg-producing cells among CD8 T cells (%) [1, 5] [%]	IFNg-producing cells among CD8 T cells (%) [1, 6] [%]	IFNg-producing cells among CD8 T cells (%) [1, 7] [%]	IFNg-producing cells among CD8 T cells (%) [1, 8] [%]	IFNg-producing cells among CD8 T cells (%) [1, 9] [%]	IFNg-producing cells among CD8 T cells (%) [1, 10] [%]	IFNg-producing cells among CD8 T cells (%) [1, 11] [%]	IFNg-producing cells among CD8 T cells (%) [1, 12] [%]	IFNg-producing cells among CD8 T cells (%) [1, 13] [%]	IFNg-producing cells among CD8 T cells (%) [1, 14] [%]	IFNg-producing cells among CD8 T cells (%) [1, 15] [%]	IFNg-producing cells among CD8 T cells (%) [1, 16] [%]	IFNg-producing cells among CD8 T cells (%) [1, 17] [%]	IFNg-producing cells among CD8 T cells (%) [1, 18] [%]	IFNg-producing cells among CD8 T cells (%) [1, 19] [%]	IFNg-producing cells among CD8 T cells (%) [1, 20] [%]	IFNg-producing cells among CD8 T cells (%) [1, 21] [%]	other results
VFVSNGTHWF [S-VFF10]	0.490	0.090	0.710	0.000	0.560	0.000	0.420	0.110	0.000	0.000	0	0	0	0.485	0.489	0	0	0	3.184	0	Freq of responder (%) ([1]; of 17 vaccinated HLA-A*24:02+ individuals (Fig. 4b)): 5.9%; Resp: number of responders (individuals with epitope-specific CD8+ T cells) ([1]; of 17 vaccinated HLA-A*24:02+ individuals, […], 1 μM peptide): one; IFNg-producing cells among CD8 T cells (%) [1, 22]: 0%; IFNg-producing cells among CD8 T cells (%) [1, 23]: 0.283%; IFNg-producing cells among CD8 T cells (%) [1, 24]: 0.024%; IFNg-producing cells among CD8 T cells (%) [1, 25]: 0%; IFNg-producing cells among CD8 T cells (%) [1, 26]: 0.253%; IFNg-producing cells among CD8 T cells (%) [1, 27]: 0%; IFNg-producing cells among CD8 T cells (%) [1, 28]: 0%; MFI, HLA-A2402 (APC), representative staining (HLA-A*24:02; [29]): 22.3; MFI, HLA-A2402 (APC), representative staining (HLA-A*24:02; Suppl. Fig. 3c (for Fig. 4c), peptide(-) 11.7, 26 °C (Maximum) 28.9): 37.9
IYQTSNFRV [S-IV9]	0.000	0.090	0.000	0.000	0.340	0.260	0.060	0.000	0.160	0.000	0	0.595	0.717	0	0	0.265	0	0	0	0	IFNg-producing cells among CD8 T cells (%) [1, 22]: 0.241%; IFNg-producing cells among CD8 T cells (%) [1, 23]: 0%; IFNg-producing cells among CD8 T cells (%) [1, 24]: 0%; IFNg-producing cells among CD8 T cells (%) [1, 25]: 0%; IFNg-producing cells among CD8 T cells (%) [1, 26]: 0.005%; IFNg-producing cells among CD8 T cells (%) [1, 27]: 0.261%; IFNg-producing cells among CD8 T cells (%) [1, 28]: 0%; MFI, HLA-A2402 (APC), representative staining (HLA-A*24:02; [29]): 33.2
YYHKNNKSW [S-YW9]	0.653	0.000	0.000	0.000	0.000	0.140	0.310	0.000	0.000	0.550	0.268	0	0.343	0	0.139	0.061	0.182	0.035	0.232	0	IFNg-producing cells among CD8 T cells (%) [1, 22]: 0.769%; IFNg-producing cells among CD8 T cells (%) [1, 23]: 0%; IFNg-producing cells among CD8 T cells (%) [1, 24]: 0%; IFNg-producing cells among CD8 T cells (%) [1, 25]: 0%; IFNg-producing cells among CD8 T cells (%) [1, 26]: 0.709%; IFNg-producing cells among CD8 T cells (%) [1, 27]: 0.019%; IFNg-producing cells among CD8 T cells (%) [1, 28]: 0.154%; MFI, HLA-A2402 (APC), representative staining (HLA-A*24:02; [29]): 10.2; binding to HLA-A*24:02 (in words) (HLA-A*24:02; […], 16 peptides tested at 100 μM): did not bind
